Measurements: article PMC3901029 (Biochemical and biophysical research communications, 2013)

Biological target: MJ (MJ0796-G174W-G14C, single-Cys mutant based on Cys-less MJ0796; isolated nucleotide-binding domain) (Methanocaldococcus jannaschii, UniProt Q58206, C128I/C53G/G14C/G174W/K44A)
Assay: Trp174 fluorescence quenching

MJ (MJ0796-G174W-G14C, single-Cys mutant based on Cys-less MJ0796; isolated nucleotide-binding domain), sequence (Q58206 whole entry G14C/K44A/C53G/C128I/G174W, the tested form may be a part): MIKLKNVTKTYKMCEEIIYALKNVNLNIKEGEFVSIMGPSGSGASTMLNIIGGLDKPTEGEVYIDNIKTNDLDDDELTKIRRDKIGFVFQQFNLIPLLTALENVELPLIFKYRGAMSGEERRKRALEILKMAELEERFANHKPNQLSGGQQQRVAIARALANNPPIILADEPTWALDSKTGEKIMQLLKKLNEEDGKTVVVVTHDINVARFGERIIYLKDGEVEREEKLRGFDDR

Compound `Nc1ncnc2c1ncn2[C@@H]1O[C@H](COP(=O)(O)OP(=O)(O)OP(=O)(O)O)[C@@H](O)[C@H]1O` [ATP] has a Kd of 70 ± 13 µM.
